For 10 compounds, CC50 and EC50 results are on record in patent US8729089B2 (Gilead Sciences, Inc., priority 2006, dated 2014).

One may read the CC50 as the concentration at which the toxic effect on the cells reaches its halfway point. Higher therefore signals better tolerance by the cells. As a reminder, the EC50 is the concentration giving half of the maximal effect.

Some results are limits rather than exact numbers.

Data set [1] in a line: CC50 assay (CellTiter-Glo) in Huh-7 HCV replicon cells. In kind it is cell-based, human. The note with it: human, 3 days incubation, CellTiter-Glo readout. The gist of the method: (§1)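 Cytotoxicity (CC50) measured by CellTiter-Glo and antiviral activity (EC50) by luciferase signal from lysed cells, both by luminescence. Replicon-bearing Huh-7 cells, 6000 per well, incubated 3 days at 37 °C with threefold-diluted compound (0.5% DMSO for DMSO-dissolved compounds).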
(In ATP-based viability assays light output follows the ATP content of the culture.)

The test system of data set [2] is HCV replicon in human hepatoma Huh-7 cell line. The data set is described as follows: Anti-HCV replicon assay (EC50, luciferase). In kind it is cell-based. The note with it: Hepatitis C virus, Huh-7, 72 h. The gist of the method: as §1
(In general: A replicon is a self-replicating genome or part of one, used to study replication in cells.)

In the case of `CCOc1nc(NCc2ccc(S(N)(=O)=O)cc2)nc2ccc(-c3ccc(N4CCC(O)C4=O)cc3)nc12` (centres unmarked) [Example 122, 4-{[4-Ethoxy-6-(4-(3-hydroxy-2-oxopyrrolidin-1-yl)-phenyl)-pyrido[3,2-d]pyrimidin-2-ylamino]-methyl}-benzenesulfonamide], the half-maximal cytotoxic concentration (CC50) at 3 days in data set [1] is > 25 µM. Besides, in data set [2], the EC50 is < 100 nM.
For `NS(=O)(=O)c1ccc(CNc2nc(NCC(F)(F)F)c3nc(-c4ccc(F)c(S(=O)(=O)N5CCNCC5)c4)ccc3n2)cc1` [Example 217, 4-{[6-[4-Fluoro-3-(piperazine-1-sulfonyl)-phenyl]-4-(2,2,2-trifluoro-ethylamino)-pyrido[3,2-d]pyrimidin-2-ylamino]-methyl}-benzenesulfonamide] the same measures were < 5 µM and < 100 nM.
For `CCOc1nc(NCc2cc(F)cc(F)c2)nc2ccc(-c3ccc(F)cc3)nc12` [Example 45, (3,5-Difluoro-benzyl)-[4-ethoxy-6-(4-fluoro-phenyl)-pyrido[3,2-d]pyrimidin-2-yl]-amine] the same measures were 5 to 25 µM and < 100 nM.
For `NS(=O)(=O)c1ccc(CNc2nc(NCC(F)(F)F)c3nc(-c4ccc(NC(=O)C5(O)CC5)cc4)ccc3n2)cc1` [Example 180, 1-Hydroxy-cyclopropanecarboxylic acid {4-[2-(4-sulfamoyl-benzylamino)-4-(2,2,2-trifluoro-ethylamino)-pyrido[3,2-d]pyrimidin-6-yl]-phenyl}-amide] the same measures were > 25 µM and < 100 nM.
In the case of `NS(=O)(=O)c1ccc(CNc2nc(NCC(F)(F)F)c3nc(-c4ccc(Cl)c(S(=O)(=O)NCCN5CCCC5)c4)ccc3n2)cc1` [Example 195, 2-Chloro-N-(2-pyrrolidin-1-yl-ethyl)-5-[2-(4-sulfamoyl-benzylamino)-4-(2,2,2-trifluoro-ethylamino)-pyrido[3,2-d]pyrimidin-6-yl]-benzenesulfonamide], the CC50 at 3 days in data set [1] was < 5 µM. In addition, in data set [2], the EC50 is < 100 nM.
For `NS(=O)(=O)c1ccc(CNc2nc(NCC(F)(F)F)c3nc(-c4ccc(F)nc4)ccc3n2)cc1` [Example 190, 4-{[6-(6-Fluoro-pyridin-3-yl)-4-(2,2,2-trifluoro-ethylamino)-pyrido[3,2-d]pyrimidin-2-ylamino]-methyl}-benzenesulfonamide] the same measures were < 5 µM and < 100 nM.
For `CCOc1nc(NCc2ccc(S(N)(=O)=O)cc2)nc2ccc(-c3ccc(NC(=O)NCCN4CCOCC4)cc3)nc12` [Example 123, 4-{[4-Ethoxy-6-(4-(3-(2-(morpholin-4-yl)ethyl)ureido)-phenyl)-pyrido[3,2-d]pyrimidin-2-ylamino]-methyl}-benzenesulfonamide], in data set [1], the CC50 at 3 days was in the range of 5 to 25 µM. Besides, in data set [2], the EC50 is < 100 nM.
For `CCOc1nc(NCc2ccc(F)cc2)nc2ccc(-c3ccc4[nH]ncc4c3)nc12` [Example 77, [4-Ethoxy-6-(1H-indazol-5-yl)-pyrido[3,2-d]pyrimidin-2-yl]-(4-fluoro-benzyl)-amine] the same measures were 5 to 25 µM and < 100 nM.
`CN(CCS(C)(=O)=O)c1nc(NCc2ccc(F)cc2)nc2ccc(-c3ccc(C(N)=O)cc3)nc12` [Example 273, 4-{2-(4-Fluoro-benzylamino)-4-[(2-methanesulfonyl-ethyl)-methyl-amino]-pyrido[3,2-d]pyrimidin-6-yl}-benzamide] came in with a CC50 at 3 days in data set [1] of 5 to 25 µM. Moreover, the half-maximal effective concentration (EC50) in data set [2] is < 100 nM.
For `CCOc1nc(NCc2ccc(F)cc2)nc2ccc(-c3cccc(NS(=O)(=O)C4CC4)c3)nc12` [Example 82, Cyclopropanesulfonic acid {3-[4-ethoxy-2-(4-fluoro-benzylamino)-pyrido[3,2-d]pyrimidin-6-yl]-phenyl}-amide] the same measures were < 5 µM and < 100 nM.
